Data on 47 compounds can be found in PubChem BioAssay (NCI).

Common to all, as to test: NCI anticancer screen, dose series, 48 h
In assay [1] the test system is MDA-N.
Assay [2] has as its system DMS 273 small cell lung.
In assay [3] the test system is SNB-78 CNS.
Assay [4] deals with RXF-631 renal.
In assay [5] the test system is DLD-1 colon.
Assay [6] concerns DMS 114 small cell lung.
Assay [7] concerns M19-MEL melanoma.
The test system of assay [8] is LXFL 529 NSCLC.
Assay [9] relates to HOP-18 NSCLC.

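Results reflect a 48-hour exposure of cells in 96-well plates to compound at five concentrations. GI50 = concentration required for 50% inhibition of growth. The concentration for full growth arrest is given as TGI.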

For `O=c1c2ccccc2sc2cccc(NCCCN3CCN(CCCNc4cccc5sc6ccccc6c(=O)c45)CC3)c12`, the TGI in assay [1] is > 100 µM.
`Cc1nc2ccccc2nc1-c1ccc(N=[N+]([O-])c2ccc(-c3nc4ccccc4nc3C)cc2)cc1`: in [1], the TGI was > 100 µM.
In the case of `O=C(NCCCCN=c1cccccc1NCCCCNC(=O)OCc1ccccc1)OCc1ccccc1`, the TGI in [2] was determined as 31.3 µM; in assay [3], 71.1 µM; in assay [4] it was 26.1 µM; in [5], 43.6 µM; in assay [6], 29.4 µM; in [7] it was 39.3 µM.
Regarding `CCOC(=O)C1(c2ccccc2)CCC(=O)CC1`, the TGI in [2], in assay [8], in [3], in assay [4], in assay [5] and in assay [6] was > 100 µM throughout. In addition, the TGI in assay [9] and in assay [7] was > 100 µM throughout.
Take `CN(C)c1c([O-])c(=[N+](C)C)c1=O`: the TGI in assay [2], in [8] and in assay [3] was > 100 µM each time.
`CC[C@@]12N=C(N(C)C)C[C@]1(O)ON=C2C`: the TGI in [2], in assay [8], in assay [5], in assay [6], in assay [9] and in assay [7] was > 100 µM each time.
`O=C(O)CSc1n[nH]c(-c2ccccc2)n1`: the TGI in assay [2], in [8], in assay [5], in assay [9] and in assay [7] was > 100 µM in each case.
Take `O=c1[nH]cc(COCCO)c(=O)[nH]1`: the TGI in assay [2], in [8], in assay [3], in [4], in assay [5] and in assay [6] was > 100 µM in each case. For the same compound, the TGI in assay [9] and in [7] was > 100 µM in each case.
With `COc1ccc(C(O)c2nccn2C)c(OC)c1` (stereo not given), the TGI in [1] is > 100 µM.
Consider `O=C1c2ccccc2C2(O)c3cc4ccccc4cc3OC12O` (stereo not given), for which the TGI in [2] was > 100 µM; in assay [8], > 100 µM; in assay [3], > 100 µM; in assay [5], > 100 µM; in assay [6], 99 µM; in assay [9], > 100 µM. For the same compound, the TGI in assay [7] is > 100 µM.
As for `CCCNC(=S)/N=C/c1c(O)c2ccccc2[nH]c1=O`, the TGI in assay [1] was > 100 µM.
`Cc1ccc(NC(=O)C2C(=O)N(c3ccc(C)c(C)c3)C(=O)C2N=N)cc1C` (stereo not given): the TGI in assay [2], in assay [8], in assay [3], in assay [4], in assay [5] and in assay [6] was > 100 µM throughout. Moreover, the TGI in [9] and in assay [7] was > 100 µM each time.
As to `CC(=O)OC12c3ccccc3-c3ccccc3C1C1C(=O)N(C)C(=O)C12Cl` (stereo not given), in assay [1], the TGI was > 10 µM.
As for `CC(CC(=O)O)C(C(=O)O)C(=O)O` (stereo not given), the TGI in assay [1] was > 100 µM.
Take `O=C(Nc1cc(Cl)ccc1Cl)c1cc2cccc(Cl)c2oc1=O`: the TGI in [2], in assay [5], in assay [6], in [9] and in assay [7] was > 100 µM in each case.
As for `O=C(CSc1nnc(-c2ccc(N=Cc3ccc(Cl)cc3)cc2)o1)Nc1ccc(Cl)cc1`, the TGI in assay [2], in assay [8], in [3], in assay [6], in [9] and in assay [7] was > 100 µM in each case.
For the compound `CC(=O)n1c2c(c(=O)n1-c1ccccc1)S(=O)CCC2` (stereo not given), the TGI in assay [2], in [8], in assay [3], in assay [4], in assay [5] and in assay [6] was > 100 µM in each case. Further, in assay [7], the TGI is > 100 µM.
On to `O=C(CC(O)(C(F)(F)F)C(F)(F)F)c1cc(CC(=O)C(O)(C(F)(F)F)C(F)(F)F)cc(CC(=O)C(O)(C(F)(F)F)C(F)(F)F)c1`, for which, in [1], the TGI was > 9.13 µM.
As to `CCc1c(OC(C)=O)c2c(NC3OC(COC(C)=O)C(OC(C)=O)C(OC(C)=O)C3OC(C)=O)nc(OC)nc2oc1=O` (stereo not given), the TGI in assay [2], in assay [8], in assay [3], in assay [5], in assay [6] and in assay [9] was > 100 µM each time. The TGI in [7] is > 100 µM.
As for `CCN1CCN=c2c3cc(OC)ccc3n3cnc4ccc1c2c43`, the TGI in [1] is 1.11 µM.
As to `CCCCCCC[CH2][Sn]1([CH2]CCCCCCC)[O]C(=O)c2cccnc2[S]1`, the GI50 in assay [2], in [8], in [3], in assay [4], in [5] and in assay [6] was > 100 µM in each case. Besides, the GI50 in [7] was > 100 µM. The TGI in [2], in assay [8], in assay [3], in [4], in assay [5] and in [6] was > 100 µM in each case. For the same compound, the TGI in [7] is > 100 µM.
Regarding `O=C1NC(=S)NNC12c1ccccc1-c1ccccc12`, in [1], the TGI was > 10 µM.
As for `O=[N+]([O-])c1ccc(-n2nnc(C3=NCCN3)c2-c2ccc(Cl)cc2)cc1`, the TGI in [2], in [8], in assay [3], in assay [5], in assay [6] and in assay [9] was > 100 µM each time. The TGI in [7] was > 100 µM.
In the case of `Cc1c(Cl)cccc1N1C(=O)C(Cl)=C(Cl)C1=O`, the TGI in [2], in assay [8], in assay [3], in [5], in assay [6] and in assay [9] was > 100 µM in each case. In assay [7], the TGI is > 100 µM.
For `COc1ccc2oc(-c3cccnc3)cc(=O)c2c1`, the TGI in [2], in assay [8], in assay [4], in assay [5], in assay [6] and in assay [7] was > 100 µM each time.
As for `CCOc1ccc2c(c1)[n+]([O-])c(-c1ccccc1Cl)c(N)[n+]2[O-]`, the TGI in assay [2], in assay [8], in [3], in assay [4], in assay [5] and in assay [6] was > 100 µM throughout. Moreover, the TGI in assay [9] and in assay [7] was > 100 µM throughout.
As to `CCC1C2C=CC(CC2)N1S(=O)(=O)c1ccc(C)cc1` (stereo not given), the TGI in [2] is 60.2 µM; in assay [8], 55.5 µM; in assay [4] it was > 100 µM; in assay [6], 58.1 µM; in [7], > 100 µM.
With `O=C(N/N=C1/C(=O)N(c2ccc(Cl)cc2Cl)C(=O)C(=O)C1c1nc2ccccc2o1)c1ccccc1O` (stereo not given), the TGI in [8] was > 100 µM; in assay [5], > 100 µM; in [6] it was 78.5 µM; in [7], > 100 µM.
For the compound `O=C(O)[C@H](NS(=O)(=O)c1ccc2ccccc2c1)c1ccccc1`, the TGI in assay [2], in assay [8], in assay [4], in assay [5], in assay [9] and in [7] was > 100 µM in each case.
As to `c1ccc(SC2CCSc3ccccc3C2Sc2ccccc2)cc1` (stereo not given), the TGI in [2], in assay [8], in assay [3] and in [5] was > 100 µM in each case.
In the case of `CCSc1[nH]c(Nc2nc(-c3ccccc3)n(-c3ccccc3)n2)c(C(N)=O)c1C(N)=O`, the TGI in [1] was > 10 µM.
Take `COc1ccc(/C(=N\NC(=O)C(N)=O)C(c2ccc(OC)cc2)C2(O)C(=O)Nc3c(Cl)cccc32)cc1` (stereo not given): the TGI in assay [8], in assay [3], in assay [5], in [6], in assay [9] and in [7] was > 100 µM each time.
As for `CC1=C2CCCC2=C/C(=N/Nc2ccc([N+](=O)[O-])cc2[N+](=O)[O-])CC1`, the TGI in [2], in assay [8], in assay [3], in assay [5], in [6] and in [9] was > 100 µM in each case. Further, the TGI in assay [7] is > 100 µM.
As for `O=C(c1ccc(Cl)cc1)c1cnc(Nc2ccccc2Cl)s1`, the TGI was 50.1 µM in assay [1]; 42.9 µM in [2]; 32.8 µM in [8]; > 100 µM in [5]; 66.7 µM in assay [6]; > 100 µM in assay [7].
In turn, `CC1=CC(=O)[C@@H](O)[C@]2(C)[C@H]3[C@@]4(O)OC[C@]35[C@H]([C@@H](C)[C@H]4O)[C@@H](O)C(=O)O[C@@H]5C[C@@H]12` returned a TGI in assay [1] of 0.869 µM.
`O=c1n(-c2ccccc2)c(=O)n2n1C1C=CC2C2C(C1)C2(Cl)Cl` (stereo not given): the TGI in assay [2], in assay [8], in assay [3], in assay [4], in [5] and in assay [6] was > 100 µM in each case. Besides, the TGI in assay [7] was > 100 µM.
Regarding `COC1C(O)=C2C(=O)O/C(C)=C/C=C/C=C/C=C\CC(c3ccccc3)NC(=O)\C=C/C=C\C=C\C=C\[C@@]2(C)[C@@H]1O` (stereo not given in full), the TGI in [1] was determined as 0.265 µM; in assay [5], 0.147 µM; in [6] it was 0.357 µM; in [7], 0.273 µM.
For the compound `CCOC(=O)C(C)(C)Oc1ccc2c(C)c(-c3ccc(Cl)cc3)c(=O)oc2c1`, the TGI in assay [2], in assay [8], in assay [4], in assay [5], in [6] and in assay [7] was > 100 µM throughout.
Regarding `O=C1CC(C[C@H](O)C2CCCCC2O)CC(=O)N1Cc1ccccc1` (stereo not given in full), the TGI in assay [2], in [8], in [3], in assay [4], in assay [5] and in assay [9] was > 100 µM throughout. The TGI in [7] is > 100 µM.
Consider `Cc1[nH]c2ccccc2c1-c1cc(-c2cc(-c3c(C)[nH]c4ccccc34)on2)no1`, for which, in assay [1], the TGI was 48.3 µM.
With `CCOc1ccc(N2C(=O)/C(=C/c3ccc(N(CCC#N)CCC#N)cc3)N=C2c2cc([N+](=O)[O-])ccc2Cl)cc1`, the TGI in assay [2] is 40.8 µM; in assay [8] it was 95 µM; in [3] it was > 100 µM; in assay [4] it was > 100 µM; in assay [5] it was > 100 µM; in assay [6] it was > 100 µM. Besides, the TGI was > 100 µM in assay [9] and 66.5 µM in assay [7].
Consider `C[C@H]1NC(=O)C2CCCCN2C(=O)CN(C)C(=O)CNC(=O)C2CCCCN2C(=O)[C@@H](NC(=O)c2nc3ccccc3cc2O)[C@@H](C)NC(=O)C2CCCCN2C(=O)CN(C)C(=O)CNC(=O)[C@@H]2CCCCN2C(=O)C1NC(=O)c1nc2ccccc2cc1O` (stereo not given in full), for which the TGI was found to be 1.07 µM in assay [2]; 0.646 µM in [8]; 11.5 µM in assay [3]; 0.703 µM in [6]; 0.56 µM in [7].
In [1], `N#Cc1c(-c2ccc(F)cc2)c(-c2ccc(F)cc2)nn(CCO)c1=O` gave a TGI of 0.121 µM.
Consider `O=c1cc(-c2ccccc2)[nH]c2c(S)cccc12`, for which the TGI in [1] was > 100 µM.
On the same count and under the same terms, to `C1CSCCSCCS1` belongs > 100 µM; to `COc1c(OC)c(OC)c(C(=O)/C=C/c2ccccc2)c(OC)c1OC`, 70.2 µM.
On to `COc1ccc(NC(=O)/C(N=O)=C(/C)O)cc1`, for which the TGI in assay [2], in assay [8], in assay [3], in assay [5], in assay [6] and in [9] was > 100 µM in each case.
